# According to US6465395B2, “Substituted methylene pyrazolinones and the herbicidal use thereof” (BASF Aktiengesellschaft, priority 2000, dated 2002):
# What was measured:
# Type in all cases: in vivo
# [1] = system: GOSHI, Cotton, Gossypium hirsutum, L.; test: Postemergence herbicidal evaluation; conditions: crop (cotton)
# Protocol: (§1) The postemergence herbicidal activity of the compounds of the present invention is evaluated by the following tests. Seedling plants are grown in jiffy flats for about two weeks. The test compounds are dispersed in 80/20 (v/v) acetone/water mixtures containing 1.0% SUN-IT®II, a methylated seed oil, in sufficient quantities to provide the equivalent of about 0.006 kg/ha to 0.800 kg/ha of active compound when applied to the plants through a spray nozzle operating at 40 psi for a predetermined time. After spraying, the plants are placed on greenhouse benches and are cared for in accordance with conventional greenhouse procedures. Approximately two to three weeks after treatment, the seedling plants are examined and rated according to the rating system set forth below. Where more than one test is involved for a given compound, the data are averaged.
# [2] = system: ABUTH, Velvetleaf, Abutilon theophrasti, Medic.; test: Postemergence herbicidal evaluation
# Protocol: as §1
# [3] = system: AMBEL, Ragweed, Ambrosia artemisifolia, L.; test: Postemergence herbicidal evaluation
# Protocol: as §1
# [4] = system: CHEAL, Lambsquarters, Chenopodium album, L.; test: Postemergence herbicidal evaluation
# Protocol: as §1
# [5] = system: ECHCG, Barnyardgrass, Echinochloa crus-galli, (L.) Beau; test: Postemergence herbicidal evaluation
# Protocol: as §1
# [6] = system: IPOSS, Morningglory spp., Ipomoea spp.; test: Postemergence herbicidal evaluation
# Protocol: as §1
# [7] = system: ORYSAT, Rice, Tebonnet, Oryza sativa, (L.) Tebonnet; test: Postemergence herbicidal evaluation; conditions: crop (rice)
# Protocol: as §1
# [8] = system: PANDI, Panicum, Fall, Panicum dichotomiflorum, Michx; test: Postemergence herbicidal evaluation
# Protocol: as §1
# [9] = system: SETVI, Foxtail, Green, Setaria viridis, (L.) Beau; test: Postemergence herbicidal evaluation
# Protocol: as §1
# [10] = system: ZEAMX, Corn, Field, Zea mays, L.; test: Postemergence herbicidal evaluation; conditions: crop (corn)
# Protocol: as §1
# [11] = system: ABUTH, Velvetleaf, Abutilon theophrasti, Medic.; test: Preemergence herbicidal evaluation
# Text: (§2) The preemergence herbicidal activity of the test compounds of the present invention is exemplified by the following tests in which the seeds of a variety of monocotyledonous and dicotyledonous plants are separately mixed with potting soil and planted on top of approximately one inch of soil in separate pint cups. After planting, the cups are sprayed with the selected aqueous acetone solution containing test compound in sufficient quantity to provide the equivalent of about 0.0125 kg/ha to 0.800 kg/ha of test compound per cup. The treated cups are then placed on greenhouse benches, watered and cared for in accordance with conventional greenhouse procedures. Approximately two to four weeks after treatment, the tests are terminated and each cup is examined and rated according to the rating system provided in Example 12. When more than one test is performed for a given compound, the data are averaged.
# [12] = system: AMBEL, Ragweed, Ambrosia artemisifolia, L.; test: Preemergence herbicidal evaluation
# Text: as §2
# [13] = system: CHEAL, Lambsquarters, Chenopodium album, L.; test: Preemergence herbicidal evaluation
# Text: as §2
# [14] = system: ECHCG, Barnyardgrass, Echinochloa crus-galli, (L.) Beau; test: Preemergence herbicidal evaluation
# Text: as §2
# [15] = system: GOSHI, Cotton, Gossypium hirsutum, L.; test: Preemergence herbicidal evaluation; conditions: crop (cotton)
# Text: as §2
# [16] = system: IPOSS, Morningglory spp., Ipomoea spp.; test: Preemergence herbicidal evaluation
# Text: as §2
# [17] = system: ORYSAT, Rice, Tebonnet, Oryza sativa, (L.) Tebonnet; test: Preemergence herbicidal evaluation; conditions: crop (rice)
# Text: as §2
# [18] = system: PANDI, Panicum, Fall, Panicum dichotomiflorum, Michx; test: Preemergence herbicidal evaluation
# Text: as §2
# [19] = system: SETVI, Foxtail, Green, Setaria viridis, (L.) Beau; test: Preemergence herbicidal evaluation
# Text: as §2
# [20] = system: ZEAMX, Corn, Field, Zea mays, L.; test: Preemergence herbicidal evaluation; conditions: crop (corn)
# Text: as §2
structure (smiles),measurement,setting,value
"CCCS/C(=C1\C=NN(CC)C1=O)c1ccc2c(c1C)/C(=N/OC)CCS2(=O)=O [Example 8a, 1-Ethyl-4-[(E)-(5-methyl-4-oxothiochroman-6-yl)(propylthio)methylene]-2-pyrazolin-5-one 4′-[(E)-O-methyloxime], S,S-dioxide]",Herbicide rating GOSHI,[1]; 0.0500 kg/ha,0.0
same,Herbicide rating GOSHI,[1]; 0.1000 kg/ha,0.0
same,Herbicide rating GOSHI,[1]; 0.2000 kg/ha,0.0
same,Herbicide rating GOSHI,[1]; 0.4000 kg/ha,3.0
same,Herbicide rating GOSHI,[1]; 0.8000 kg/ha,6.0
same,Herbicide rating ABUTH,[2]; 0.0500 kg/ha,0.0
same,Herbicide rating ABUTH,[2]; 0.1000 kg/ha,1.0
same,Herbicide rating ABUTH,[2]; 0.2000 kg/ha,2.0
same,Herbicide rating ABUTH,[2]; 0.4000 kg/ha,8.0
same,Herbicide rating ABUTH,[2]; 0.8000 kg/ha,6.0
same,Herbicide rating AMBEL,[3]; 0.0500 kg/ha,2.0
same,Herbicide rating AMBEL,[3]; 0.1000 kg/ha,3.0
same,Herbicide rating AMBEL,[3]; 0.2000 kg/ha,6.0
same,Herbicide rating AMBEL,[3]; 0.4000 kg/ha,7.0
same,Herbicide rating AMBEL,[3]; 0.8000 kg/ha,8.0
same,Herbicide rating CHEAL,[4]; 0.0500 kg/ha,7.0
same,Herbicide rating CHEAL,[4]; 0.1000 kg/ha,9.0
same,Herbicide rating CHEAL,[4]; 0.2000 kg/ha,9.0
same,Herbicide rating CHEAL,[4]; 0.4000 kg/ha,9.0
same,Herbicide rating CHEAL,[4]; 0.8000 kg/ha,9.0
same,Herbicide rating ECHCG,[5]; 0.0500 kg/ha,8.0
same,Herbicide rating ECHCG,[5]; 0.1000 kg/ha,8.0
same,Herbicide rating ECHCG,[5]; 0.2000 kg/ha,8.0
same,Herbicide rating ECHCG,[5]; 0.4000 kg/ha,9.0
same,Herbicide rating ECHCG,[5]; 0.8000 kg/ha,9.0
same,Herbicide rating IPOSS,[6]; 0.0500 kg/ha,0.0
same,Herbicide rating IPOSS,[6]; 0.1000 kg/ha,0.0
same,Herbicide rating IPOSS,[6]; 0.2000 kg/ha,0.0
same,Herbicide rating IPOSS,[6]; 0.4000 kg/ha,2.0
same,Herbicide rating IPOSS,[6]; 0.8000 kg/ha,4.0
same,Herbicide rating ORYSAT,[7]; 0.0500 kg/ha,0.0
same,Herbicide rating ORYSAT,[7]; 0.1000 kg/ha,0.7
same,Herbicide rating ORYSAT,[7]; 0.2000 kg/ha,1.5
same,Herbicide rating ORYSAT,[7]; 0.4000 kg/ha,5.0
same,Herbicide rating ORYSAT,[7]; 0.8000 kg/ha,5.0
same,Herbicide rating PANDI,[8]; 0.0500 kg/ha,3.0
same,Herbicide rating PANDI,[8]; 0.1000 kg/ha,6.0
same,Herbicide rating PANDI,[8]; 0.2000 kg/ha,7.0
same,Herbicide rating PANDI,[8]; 0.4000 kg/ha,6.0
same,Herbicide rating PANDI,[8]; 0.8000 kg/ha,9.0
same,Herbicide rating SETVI,[9]; 0.0500 kg/ha,1.0
same,Herbicide rating SETVI,[9]; 0.1000 kg/ha,4.0
same,Herbicide rating SETVI,[9]; 0.2000 kg/ha,5.0
same,Herbicide rating SETVI,[9]; 0.4000 kg/ha,8.0
same,Herbicide rating SETVI,[9]; 0.8000 kg/ha,9.0
same,Herbicide rating ZEAMX,[10]; 0.0500 kg/ha,0.0
same,Herbicide rating ZEAMX,[10]; 0.1000 kg/ha,0.0
same,Herbicide rating ZEAMX,[10]; 0.2000 kg/ha,0.0
same,Herbicide rating ZEAMX,[10]; 0.4000 kg/ha,0.0
same,Herbicide rating ZEAMX,[10]; 0.8000 kg/ha,0.5
same,Herbicide rating ABUTH,[11]; 0.4000 kg/ha,2.0
same,Herbicide rating ABUTH,[11]; 0.8000 kg/ha,6.0
same,Herbicide rating AMBEL,[12]; 0.4000 kg/ha,3.0
same,Herbicide rating AMBEL,[12]; 0.8000 kg/ha,6.0
same,Herbicide rating CHEAL,[13]; 0.4000 kg/ha,9.0
same,Herbicide rating CHEAL,[13]; 0.8000 kg/ha,9.0
same,Herbicide rating ECHCG,[14]; 0.4000 kg/ha,0.0
same,Herbicide rating ECHCG,[14]; 0.8000 kg/ha,2.0
same,Herbicide rating GOSHI,[15]; 0.4000 kg/ha,0.0
same,Herbicide rating GOSHI,[15]; 0.8000 kg/ha,2.0
same,Herbicide rating IPOSS,[16]; 0.4000 kg/ha,0.0
same,Herbicide rating IPOSS,[16]; 0.8000 kg/ha,2.0
same,Herbicide rating ORYSAT,[17]; 0.4000 kg/ha,0.0
same,Herbicide rating ORYSAT,[17]; 0.8000 kg/ha,3.0
same,Herbicide rating PANDI,[18]; 0.4000 kg/ha,5.0
same,Herbicide rating PANDI,[18]; 0.8000 kg/ha,8.0
same,Herbicide rating SETVI,[19]; 0.4000 kg/ha,4.0
same,Herbicide rating SETVI,[19]; 0.8000 kg/ha,5.0
same,Herbicide rating ZEAMX,[20]; 0.4000 kg/ha,0.0
same,Herbicide rating ZEAMX,[20]; 0.8000 kg/ha,0.0
